PubChem BioAssay AID1259407 (Chemical Carcinogenesis Research Information System (CCRIS), 2018)
The source made the active and inactive calls. The rule behind the calls is not given here.

Test system: CCRIS mutagenicity, Ames/micronucleus/aberration tests
Experiment: CCRIS mutagenicity studies
Settings: Test System: AMES SALMONELLA TYPHIMURIUM, Method: PREINCUBATION

Nc1ccc([N+](=O)[O-])c(N)c1
mutagenic call (Strain/Indicator: TA97, Metabolic Activation: HAMSTER, LIVER, S-9, AROCLOR 1254 (10%)): inactive; negative
mutagenic call (Strain/Indicator: TA97, Metabolic Activation: NONE): inactive; negative
mutagenic call (Strain/Indicator: TA97, Metabolic Activation: RAT, LIVER, S-9, AROCLOR 1254 (5, 10 OR 30%)): inactive; negative
mutagenic call (Strain/Indicator: TA98, Metabolic Activation: HAMSTER, LIVER, S-9, AROCLOR 1254 (10%)): active; positive
mutagenic call (Strain/Indicator: TA98, Metabolic Activation: NONE): active; positive
mutagenic call (Strain/Indicator: TA98, Metabolic Activation: RAT, LIVER, S-9, AROCLOR 1254 (10%)): active; positive
mutagenic call (Strain/Indicator: TA100, Metabolic Activation: HAMSTER, LIVER, S-9, AROCLOR 1254 (10%)): inactive; negative
mutagenic call (Strain/Indicator: TA100, Metabolic Activation: NONE): inactive; negative
mutagenic call (Strain/Indicator: TA100, Metabolic Activation: RAT, LIVER, S-9, AROCLOR 1254 (10%)): inactive; negative
mutagenic call (Strain/Indicator: TA1535, Metabolic Activation: HAMSTER, LIVER, S-9, AROCLOR 1254 (10%)): inactive; negative
mutagenic call (Strain/Indicator: TA1535, Metabolic Activation: NONE): inactive; negative
mutagenic call (Strain/Indicator: TA1535, Metabolic Activation: RAT, LIVER, S-9, AROCLOR 1254 (10%)): inactive; negative
mutagenic call (Strain/Indicator: TA1537, Metabolic Activation: HAMSTER, LIVER, S-9, AROCLOR 1254 (10%)): active; positive
mutagenic call (Strain/Indicator: TA1537, Metabolic Activation: NONE): inactive; negative
mutagenic call (Strain/Indicator: TA1537, Metabolic Activation: RAT, LIVER, S-9, AROCLOR 1254 (10%)): inactive; negative
